Drawing on patent publication US11845752B2, “Substituted imidazo[1,5-a]pyrazines for the treatment of hepatitis B” (ALIGOS THERAPEUTICS, INC., priority 2020, dated 2023), this text covers EC50 for ten compounds.

SMILES strings stand for the structures. Read-outs that look alike come from different tables or passages of the source.

The test system of this test is HBV. Nature of the test: HBV-DNA antiviral assay using HepG2.117 cells (intracellular HBV DNA by qPCR). The following applies: HBV DNA inhibition, 3 days incubation, read-out: EC50. In kind it is cell-based, HBV genotype D. Put shortly: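 Read-outs: cell-lysate HBV DNA copies by qPCR (interpolated from gBlock standard) and parallel cellular ATP luminescence for CC50, both normalised to 2% DMSO controls and fitted by non-linear regression. HepG2.117 Tet-off genotype D HBV cells, induced by doxycycline removal, exposed 3 days to 4-fold serial dilutions.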

[1] abbreviates: Hepatitis B virus, HepG2.117, 72 h.

For orientation: EC50 means the midpoint of the concentration-response curve. With `CC1Cn2c(c(C(=O)NCc3ccccc3-c3ccncn3)n(-c3ccc(N4CCC5(CC4)CN(C)C5)cc3)c2=O)CN1C(=O)c1ccc(Br)c(C(F)(F)F)c1` (single isomer, unassigned) [Compound 80a], the concentration giving a half-maximal response (EC50) under setting [1] lay in the range of 0.05 to 0.5 µM.

Regarding `CC1Cn2c(c(C(=O)NCc3ccccc3-c3ccncn3)n(-c3ccc(N4CC5(CN(C)C5)C4)cc3)c2=O)CN1C(=O)c1ccc(Br)c(C(F)(F)F)c1` (single isomer, unassigned) [Compound 73b, (6S*)-7-[4-bromo-3-(trifluoromethyl)benzoyl]-6-methyl-2-(4-{6-methyl-2,6-diazaspiro[3.3]heptan-2-yl}phenyl)-3-oxo-N-{[2-(pyrimidin-4-yl)phenyl]methyl}-5H,6H,8H-imidazo[1,5-a]pyrazine-1-carboxamide], the concentration giving a half-maximal response (EC50) fell in the range of 0.05 to 0.5 µM.

Consider `CC1Cn2c(c(C(=O)NCc3ccccc3-c3cn(C)cn3)n(-c3ccc(OC4CC4)cc3)c2=O)CN1C(=O)c1ccc(Br)c(Cl)c1` (single isomer, unassigned) [Compound 18a, 7-(4-bromo-3-chloro-benzoyl)-2-[4-(cyclopropoxy)phenyl]-6-methyl-N-[[2-(1-methylimidazol-4-yl)phenyl]methyl]-3-oxo-6,8-dihydro-5H-imidazo[1,5-a]pyrazine-1-carboxamide], for which the concentration for a half-maximal effect (EC50) under setting [1] lay in the range of 0.05 to 0.5 µM.

Consider `CC1Cn2c(c(C(=O)NCc3ccccc3-c3nccc(N)n3)n(-c3ccc(OC4CC4)cc3)c2=O)CN1C(=O)c1ccc(Br)c(C(F)(F)F)c1` (single isomer, unassigned) [Compound 29a], for which the EC50 under setting [1] was below 0.05 µM.

Regarding `CC1Cn2c(c(C(=O)NCc3ccccc3-c3nccc(N)n3)n(-c3ccc(OC4CC4)cc3)c2=O)CN1C(=O)c1ccc(Br)c(Cl)c1` (single isomer, unassigned) [Compound 30a], the EC50 under setting [1] was in the range of 0.05 to 0.5 µM.

`C[C@@H]1Cn2c(c(C(=O)NCc3ccccc3-c3ccncn3)n(-c3ccc(OC[C@@](C)(O)C(F)(F)F)cc3)c2=O)CN1C(=O)c1ccc(Br)c(C(F)(F)F)c1` (stereo in doubt) [Compound 82a, rac-(6R)-7-[4-bromo-3-(trifluoromethyl)benzoyl]-6-methyl-3-oxo-N-[(2-pyrimidin-4-ylphenyl)methyl]-2-[4-[rac-(2R)-3,3,3-trifluoro-2-hydroxy-2-methyl-propoxy]phenyl]-6,8-dihydro-5H-imidazo[1,5-a]pyrazine-1-carboxamide]: the EC50 under setting [1] was 0.05 to 0.5 µM.

As to `CNc1ccnc(-c2ccccc2CNC(=O)c2c3n(c(=O)n2-c2ccc(OC4CC4)cc2)C[C@H](C)N(C(=O)c2ccc(Br)c(Cl)c2)C3)n1` (racemic) [Compound 26b], the concentration giving a half-maximal response (EC50) under setting [1] was below 0.05 µM.

As for `CC1Cn2c(c(C(=O)NCc3ccccc3-n3cc(F)cn3)n(-c3ccc(N4CCO[C@H](C)C4)cc3)c2=O)CN1C(=O)c1ccc(Br)c(Cl)c1` (stereo in doubt) [Compound 14b, (6S*)-7-(4-bromo-3-chloro-benzoyl)-N-[[2-(4-fluoropyrazol-1-yl)phenyl]methyl]-6-methyl-2-[4-[(2R)-2-methylmorpholin-4-yl]phenyl]-3-oxo-6,8-dihydro-5H-imidazo[1,5-a]pyrazine-1-carboxamide], the EC50 is below 0.05 µM.

Consider `C[C@H](O)COc1ccc(-n2c(C(=O)NCc3ccccc3-c3ccccn3)c3n(c2=O)C[C@H](C)N(C(=O)c2ccc(Br)c(C(F)(F)F)c2)C3)cc1` (mixture of isomers) [Compound 61b, (6SR)-7-[4-bromo-3-(trifluoromethyl)benzoyl]-2-[4-[(2S)-2-hydroxypropoxy]phenyl]-6-methyl-3-oxo-N-[[2-(2-pyridyl)phenyl]methyl]-6,8-dihydro-5H-imidazo[1,5-a]pyrazine-1-carboxamide], for which the EC50 under setting [1] was below 0.05 µM.

As to `Cn1cnc2ccc(-n3c(C(=O)NCc4ccccc4)c4n(c3=O)CCN(C(=O)c3ccc(Br)c(Cl)c3)C4)cc21` [Compound 124, N-benzyl-7-(4-bromo-3-chloro-benzoyl)-2-(3-methylbenzimidazol-5-yl)-3-oxo-6,8-dihydro-5H-imidazo[1,5-a]pyrazine-1-carboxamide], the EC50 under setting [1] was 0.5 to 5 µM.
